# From patent US20060252807A1, “Novel ortho-terphenyl inhibitors of p38 kinase and methods of treating inflammatory disorders” (Kalypsys, Inc., priority 2005, published 2006)
# Target: T1, active p38 alpha enzyme (Upstate Biotechnology) (Homo sapiens, UniProt Q16539)
# T1 construct: purchased Upstate Biotechnology
# Test: p38α biochemical assay (ATP turnover, luminescent detection, Cambrex PKlight)
# Conditions: p38α biochemical assay, Table 1 Biological Activity
# Method in brief: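 Active human p38α was incubated with full-length MapkapK2 protein as substrate and 1.4 uM ATP (final) for 2 hours at 30C. Buffer: 200 mM Tris, 100 mM MgCl2, 1.5 mM EGTA, 4 mM CaCl2, 20 mM MOPS, 1 mM EDTA, 1% glycerol, 0.1% β-mercaptoethanol, 1 mg/ml BSA. Total ATP turnover read by luminescence.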
# T1 sequence (Q16539 whole entry): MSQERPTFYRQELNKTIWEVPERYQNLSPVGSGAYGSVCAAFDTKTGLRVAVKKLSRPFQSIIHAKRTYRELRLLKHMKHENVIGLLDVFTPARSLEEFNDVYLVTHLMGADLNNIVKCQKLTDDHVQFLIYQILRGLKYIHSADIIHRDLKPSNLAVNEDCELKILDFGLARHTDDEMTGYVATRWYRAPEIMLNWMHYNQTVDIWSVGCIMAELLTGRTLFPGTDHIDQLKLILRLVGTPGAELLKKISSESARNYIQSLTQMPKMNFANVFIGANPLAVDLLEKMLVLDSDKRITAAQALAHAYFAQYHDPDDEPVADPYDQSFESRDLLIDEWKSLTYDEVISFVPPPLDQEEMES
row,Compound,IC50 [nM]
1,CC(C)NC(=O)c1csc(-c2c(-c3ccc(F)cc3)noc2CNC(=O)c2cccc([N+](=O)[O-])c2)n1 [Example 660],> 1000
2,CC(C)NC(=O)c1csc(-c2oc(CN3CCN(C(=O)c4ccncc4Cl)CC3)nc2-c2ccc(F)cc2)n1 [Example 393],> 1000
3,Cc1c(C(=O)NCc2onc(-c3ccc(F)cc3)c2-c2nc(C(=O)NC(C)C)cs2)cccc1[N+](=O)[O-] [Example 698],> 1000
4,CC(C)NC(=O)c1csc(-c2oc(CN3CCN(C(=O)c4ccc(Oc5cccc(O)c5)cc4)CC3)nc2-c2ccc(F)cc2)n1 [Example 549],> 1000
5,CC(C)NC(=O)c1csc(-c2c(-c3ccc(F)cc3)noc2CNC(=O)C2CCc3ccccc32)n1 (stereo not shown) [Example 639],> 1000
6,CC(C)NC(=O)c1csc(-c2oc(CN3CCN(C(=O)c4cc(F)c(F)cc4Cl)CC3)nc2-c2ccc(F)cc2)n1 [Example 495],> 1000
7,CC(C)NC(=O)c1csc(-c2oc(CN3CCN(C(=O)C(Cc4ccc(O)cc4)NC(=O)OC(C)(C)C)CC3)nc2-c2ccc(F)cc2)n1 (stereo not shown) [Example 571],≤ 1000
8,COc1cccc(O)c1C(=O)N1CCN(Cc2nc(-c3ccc(F)cc3)c(-c3nc(C(=O)NC(C)C)cs3)o2)CC1 [Example 423],≤ 1000
9,CC(C)NC(=O)c1csc(-c2oc(CNC(=O)c3cc(F)c(Cl)cc3F)nc2-c2ccc(F)cc2)n1 [Example 259],> 1000
10,CC(C)NC(=O)c1csc(-c2oc(CNC(=O)Cc3ccc(C(F)(F)F)cc3)nc2-c2ccc(F)cc2)n1 [Example 279],> 1000
11,Cc1c(C(=O)N2CCN(Cc3nc(-c4ccc(F)cc4)c(-c4nc(C(=O)NC(C)C)cs4)o3)CC2)cccc1[N+](=O)[O-] [Example 460],> 1000

# Same assay, conditions: p38α kinase; Table 1 Biological Activity
row,Compound,IC50 [nM]
1,CC(=O)N[C@H]1CCN(C(=O)c2csc(-c3sc(C)nc3-c3ccc(F)cc3)n2)C1 [Example 1870],> 1000
2,CC(C)NC(=O)c1csc(-c2c(-c3ccc(F)cc3)noc2CN(C)CCC#N)n1 [Example 1516],> 1000
3,CC(=O)Nc1ccc(NCc2nc(-c3ccc(F)cc3)c(-c3nc(C(=O)NC(C)C)cs3)o2)cn1 [Example 1352],> 1000
4,Cc1nc(-c2ccc(F)cc2)c(-c2nc(C(=O)NCc3cccc(C(F)(F)F)c3)cs2)s1 [Example 1819],≤ 1000
5,"CC(C)NC(=O)c1csc(-c2c(-c3ccc(F)cc3)n[nH]c2C2CCN(C(=O)[C@H](C)O)CC2)n1 [Example 2165, 2-{3-(4-Fluoro-phenyl)-5-|1-(2-hydroxy-propionyl)-piperidin-4-yl|-1H-pyrazol-4-yl}-thiazole-4-carboxylic acid isopropylamide]",≤ 1000
6,CC(C)NC(=O)c1csc(-c2c(-c3ccc(F)cc3)n[nH]c2C2CCN(C(=O)c3ccnc(Cl)c3)CC2)n1 [Example 868],≤ 1000
7,CC(C)NC(=O)c1csc(-c2c(-c3ccc(F)cc3)n[nH]c2C2CCN(C(=O)c3cncc(Br)c3)CC2)n1 [Example 991],≤ 1000
8,CC(C)NC(=O)c1csc(-c2c(-c3ccc(F)cc3)noc2CNCCCc2ccccc2)n1 [Example 1450],> 1000
9,CC(C)NC(=O)c1csc(-c2c(-c3ccc(F)cc3)n[nH]c2C2CCN(C(=O)c3ccc(Cl)cc3Cl)CC2)n1 [Example 966],> 1000
10,Cc1cccc(NC(=O)c2csc(-c3sc(C)nc3-c3ccc(F)cc3)n2)c1 [Example 1956],> 1000
11,COc1cccc(CCNCc2nc(-c3ccc(F)cc3)c(-c3nc(C(=O)NC(C)C)cs3)o2)c1 [Example 1143],> 1000
12,Cc1nc(-c2ccc(F)cc2)c(-c2nc(C(=O)NCc3cccc(F)c3)cs2)s1 [Example 1758],≤ 1000
13,CCOC(=O)CC1C(=O)NCCN1Cc1onc(-c2ccc(F)cc2)c1-c1nc(C(=O)NC(C)C)cs1 (stereo not shown) [Example 1583],> 1000
14,CC(C)NC(=O)c1csc(-c2c(-c3ccc(F)cc3)n[nH]c2C2CCN(C(=O)C3CCCCN3C(=O)OC(C)(C)C)CC2)n1 (stereo not shown) [Example 1025],> 1000
15,Cc1ccc([C@H](C)NC(=O)c2csc(-c3c(-c4ccc(F)cc4)n[nH]c3C3CCNCC3)n2)cc1 [Example 2092],> 1000
16,COC[C@@H]1CCCN1Cc1onc(-c2ccc(F)cc2)c1-c1nc(C(=O)NC(C)C)cs1 [Example 1537],> 1000
17,C=CCN(Cc1nc(-c2ccc(F)cc2)c(-c2nc(C(=O)NC(C)C)cs2)o1)C1CCCCC1 [Example 1231],> 1000
18,CC(C)CC(C)NCc1nc(-c2ccc(F)cc2)c(-c2nc(C(=O)NC(C)C)cs2)o1 (stereo not shown) [Example 1080],> 1000

row,Compound,IC50 [nM]
1,CC(C)NC(=O)c1csc(-c2c(-c3ccc(F)cc3)noc2CNC2CCCC2)n1 [Example 1397],> 1000
2,Cc1ccc(CCNCc2onc(-c3ccc(F)cc3)c2-c2nc(C(=O)NC(C)C)cs2)cc1 [Example 1444],> 1000
3,Cc1nc(-c2ccc(F)cc2)c(-c2nc(C(=O)N3Cc4ccccc4C3)cs2)s1 [Example 1866],> 1000
4,CC(C)(C)c1ccc(CNC(=O)c2csc(-c3c(-c4ccc(F)cc4)n[nH]c3C3CCNCC3)n2)cc1 [Example 2135],> 1000
5,Cc1nc(-c2ccc(F)cc2)c(-c2nc(C(=O)Nc3cccc(C(F)(F)F)c3)cs2)s1 [Example 2006],> 1000
6,"COC(=O)N1CCC(c2[nH]nc(-c3ccc(F)cc3)c2-c2nc(C(=O)NC(C)C)cs2)CC1 [Example 2172, 4-|5-(4-Fluoro-phenyl)-4-(4-isopropyl-carbamoyl-thiazol-2-yl)-2H-pyrazol-3-yl|-piperidine-1-carboxylic acid methyl ester]",≤ 1000
7,CSc1ccccc1NCc1nc(-c2ccc(F)cc2)c(-c2nc(C(=O)NC(C)C)cs2)o1 [Example 1343],> 1000
8,CC(C)CC(=O)N1CCC(c2[nH]nc(-c3ccc(F)cc3)c2-c2nc(C(=O)NC(C)C)cs2)CC1 [Example 818],> 1000
9,CC(C)NC(=O)c1csc(-c2oc(CNCc3ccc(Cl)cc3)nc2-c2ccc(F)cc2)n1 [Example 1132],> 1000
10,Cc1ccc(NCc2nc(-c3ccc(F)cc3)c(-c3nc(C(=O)NC(C)C)cs3)o2)cc1F [Example 1328],> 1000
11,Cc1nc(-c2ccc(F)cc2)c(-c2nc(C(=O)Nc3cc(Cl)c(Cl)c(Cl)c3)cs2)s1 [Example 2017],> 1000
12,Cc1ccc(C(=O)N2CCC(c3[nH]nc(-c4ccc(F)cc4)c3-c3nc(C(=O)NC(C)C)cs3)CC2)c(C)c1 [Example 848],> 1000
13,"CC(C)NC(=O)c1csc(-c2c(-c3ccc(F)cc3)n[nH]c2C2CCN(C(=O)c3cccnc3)CC2)n1 [Example 2179, 2-{3-(4-Fluoro-phenyl)-5-|1-(pyridine-3-carbonyl)-piperidin-4-yl|-1H-pyrazol-4-yl}-thiazole-4-carboxylic acid isopropylamide]",≤ 1000
14,CC(C)C(CO)NC(=O)c1csc(-c2c(-c3ccc(F)cc3)n[nH]c2C2CCNCC2)n1 (stereo not shown) [Example 2061],≤ 1000
15,"CC(C)NC(=O)c1csc(-c2c(-c3ccc(F)cc3)n[nH]c2C2CCN(C(=O)c3ccccn3)CC2)n1 [Example 2169, 2-{3-(4-Fluoro-phenyl)-5-|1-(pyridine-2-carbonyl)-piperidin-4-yl|-1H-pyrazol-4-yl}-thiazole-4-carboxylic acid isopropylamide]",≤ 1000
16,Cc1nc(-c2ccc(F)cc2)c(-c2nc(C(=O)N(C)C[C@H](O)c3ccc(O)c(O)c3)cs2)s1 [Example 1907],> 1000
17,CC(C)NC(=O)c1csc(-c2oc(CNCCN(C)C)nc2-c2ccc(F)cc2)n1 [Example 1071],> 1000
